Values quoted from earlier work in US7253193B2, “Cyanoguanidine prodrugs” (LEO Pharma A/S, priority 2002, dated 2007).

How the values were obtained:
[1] = test system: human lung and breast cancer cell lines
[2] = test system: human lung cancer tumour xenograft
human tumour cells = settings: also against tumour cells resistant to conventional anticancer drugs such as paclitaxel

In the case of `N#CNC(=Nc1ccncc1)NCCCCCCOc1ccc(Cl)cc1` [N-(6-(4-chlorophenoxy)hexyl)-N′-cyano-N″-(4-pyridyl)guanidine], the “antiproliferative activity in vitro” value [1] is listed as “high antiproliferative activity in vitro”, the “antitumour activity in the nude mouse model” value [2] is listed as “potent antitumour activity” and the “antitumour activity in vivo” value (human tumour cells) is listed as “substantial antitumour activity”.
